Results on 24 compounds are retold here after patent US12581252B2, “Substituted pyrrolo[3,4-b]pyridines as PI3K-α inhibitors” (Relay Therapeutics, Inc., priority 2020, dated 2026).

A value given as a limit tells only on which side of the number the result lay.

As a reminder, the IC50 is the point on the concentration scale where inhibition reaches its midpoint.

Chain of H1047R PIK3CA enzyme (P42336 whole entry H1047R): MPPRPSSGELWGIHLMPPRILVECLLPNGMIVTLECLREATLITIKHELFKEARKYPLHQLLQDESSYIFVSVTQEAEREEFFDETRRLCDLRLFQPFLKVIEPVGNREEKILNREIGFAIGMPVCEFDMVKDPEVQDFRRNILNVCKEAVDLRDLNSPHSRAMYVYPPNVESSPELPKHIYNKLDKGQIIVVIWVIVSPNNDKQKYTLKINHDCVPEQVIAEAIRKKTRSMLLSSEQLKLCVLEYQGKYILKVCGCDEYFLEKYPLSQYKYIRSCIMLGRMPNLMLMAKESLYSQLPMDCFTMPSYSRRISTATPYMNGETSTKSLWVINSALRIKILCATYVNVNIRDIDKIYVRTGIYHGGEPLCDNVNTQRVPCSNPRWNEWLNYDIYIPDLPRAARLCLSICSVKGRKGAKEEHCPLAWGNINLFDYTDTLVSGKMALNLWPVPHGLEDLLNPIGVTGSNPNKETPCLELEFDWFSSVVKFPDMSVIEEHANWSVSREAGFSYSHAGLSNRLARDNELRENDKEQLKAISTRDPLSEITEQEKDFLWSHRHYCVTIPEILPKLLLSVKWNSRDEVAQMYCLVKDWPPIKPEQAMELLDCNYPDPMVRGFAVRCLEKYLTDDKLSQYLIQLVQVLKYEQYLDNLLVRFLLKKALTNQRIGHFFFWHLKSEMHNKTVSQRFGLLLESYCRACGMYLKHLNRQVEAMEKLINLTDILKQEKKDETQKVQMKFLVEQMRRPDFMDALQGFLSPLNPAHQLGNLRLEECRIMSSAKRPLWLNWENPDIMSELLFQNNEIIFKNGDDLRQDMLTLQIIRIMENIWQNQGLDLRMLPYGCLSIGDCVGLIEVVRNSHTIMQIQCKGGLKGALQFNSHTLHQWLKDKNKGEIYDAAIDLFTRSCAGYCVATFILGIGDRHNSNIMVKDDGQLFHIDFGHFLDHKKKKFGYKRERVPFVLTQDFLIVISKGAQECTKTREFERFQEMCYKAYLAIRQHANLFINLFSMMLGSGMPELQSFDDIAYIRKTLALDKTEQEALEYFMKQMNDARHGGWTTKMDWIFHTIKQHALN
Chain of H1047R PIK3CA enzyme (P27986 whole entry partner): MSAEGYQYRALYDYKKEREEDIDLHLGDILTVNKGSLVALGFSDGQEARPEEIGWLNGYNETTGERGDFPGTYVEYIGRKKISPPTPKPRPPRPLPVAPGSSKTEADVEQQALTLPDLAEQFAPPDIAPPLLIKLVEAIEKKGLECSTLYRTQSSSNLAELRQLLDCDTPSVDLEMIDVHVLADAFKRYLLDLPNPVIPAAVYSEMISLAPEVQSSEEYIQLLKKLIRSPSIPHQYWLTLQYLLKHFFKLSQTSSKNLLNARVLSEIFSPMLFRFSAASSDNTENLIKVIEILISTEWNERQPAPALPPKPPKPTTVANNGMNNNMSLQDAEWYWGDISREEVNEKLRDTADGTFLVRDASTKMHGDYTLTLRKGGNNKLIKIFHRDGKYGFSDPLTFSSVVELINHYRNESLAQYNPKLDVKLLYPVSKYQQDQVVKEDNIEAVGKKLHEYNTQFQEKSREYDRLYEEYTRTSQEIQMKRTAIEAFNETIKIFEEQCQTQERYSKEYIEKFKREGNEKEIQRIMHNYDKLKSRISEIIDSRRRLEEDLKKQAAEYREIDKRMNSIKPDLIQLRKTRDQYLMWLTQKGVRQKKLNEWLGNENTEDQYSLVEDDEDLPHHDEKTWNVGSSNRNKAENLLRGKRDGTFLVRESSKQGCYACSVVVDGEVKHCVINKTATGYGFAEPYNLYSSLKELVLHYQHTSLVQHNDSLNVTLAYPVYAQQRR

Tested on in one assay: not listed separately
Briefly: cells. To be noted: Homo sapiens, MCF-10A, read-out: MCF10A IC50.
Regarding `O=C(Nc1cc(Nc2ncco2)cc2c1C(c1cc(F)ccc1Cl)NC2=O)c1cc(F)cc(C(F)(F)F)c1` (stereo not drawn) [Compound I-961], the IC50 was less than 1000 nM.

As for `C[S+]([O-])Cc1cc(NC(=O)c2cc(F)cc(C(F)(F)F)c2)c2c(c1)C(=O)NC2c1cc(F)ccc1Cl` (stereo not drawn) [Compound I-962], the IC50 is less than 1000 nM.

In the case of `Cc1coc(Nc2cc(NC(=O)c3cc(F)cc(C(F)(F)F)c3)c3c(c2)C(=O)NC3c2cc(F)ccc2Cl)n1` (stereo not drawn) [Compound I-964], the IC50 is less than 1000 nM.

Turning to `Cn1cc(Nc2cc(NC(=O)c3cc(F)cc(C(F)(F)F)c3)c3c(c2)C(=O)NC3c2cc(F)ccc2Cl)nn1` (stereo not drawn) [Compound I-965], the IC50 was less than 1000 nM.

As to `Cc1nc(Nc2cc(NC(=O)c3cc(F)cc(C(F)(F)F)c3)c3c(c2)C(=O)NC3c2cc(F)ccc2Cl)oc1C` (stereo not drawn) [Compound I-966], the IC50 is less than 1000 nM.

Turning to `O=C(Nc1cc(-c2cncnc2)cc2c1C(c1cc(F)ccc1Cl)NC2=O)c1cc(F)cc(C(F)(F)F)c1` (stereo not drawn) [Compound I-967], the IC50 is less than 1000 nM.

With `CC(C)(O)Cn1cc(-c2cc(NC(=O)c3cc(F)cc(C(F)(F)F)c3)c3c(c2)C(=O)NC3c2cc(F)ccc2Cl)cn1` (stereo not drawn) [Compound I-968], the IC50 is less than 1000 nM.

As to `O=C(Nc1cc(-c2cnc3ncnn3c2)cc2c1C(c1cc(F)ccc1Cl)NC2=O)c1cc(F)cc(C(F)(F)F)c1` (stereo not drawn) [Compound I-969], the IC50 was less than 1000 nM.

In the case of `O=C(Nc1cc(-c2cc3ncccc3[nH]2)cc2c1C(c1cc(F)ccc1Cl)NC2=O)c1cc(F)cc(C(F)(F)F)c1` (stereo not drawn) [Compound I-970], the IC50 is less than 1000 nM.

Consider `O=C(Nc1cc(-c2cc3ccccc3[nH]2)cc2c1C(c1cc(F)ccc1Cl)NC2=O)c1cc(F)cc(C(F)(F)F)c1` (stereo not drawn) [Compound I-971], for which the IC50 is less than 1000 nM.

On to `O=C(Nc1cc(-c2cc3cccnc3[nH]2)cc2c1C(c1cc(F)ccc1Cl)NC2=O)c1cc(F)cc(C(F)(F)F)c1` (stereo not drawn) [Compound I-972], for which the IC50 was less than 1000 nM.

Take `Cn1ncnc1Nc1cc(NC(=O)c2cc(F)cc(C(F)(F)F)c2)c2c(c1)C(=O)NC2c1cc(F)ccc1Cl` (stereo not drawn) [Compound I-974]: the IC50 was less than 1000 nM.

In the case of `Cn1cnc(Nc2cc(NC(=O)c3cc(F)cc(C(F)(F)F)c3)c3c(c2)C(=O)NC3c2cc(F)ccc2Cl)n1` (stereo not drawn) [Compound I-976], the IC50 was less than 1000 nM.

Turning to `O=C1NC(c2cc(F)ccc2Cl)c2c(Nc3nccc4c(C(F)(F)F)cc(F)cc34)cc(Br)cc21` (stereo not drawn) [Compound I-978], the IC50 was less than 1000 nM.

For the compound `N#Cc1ncc(-c2cc(NC(=O)c3cc(F)cc(C(F)(F)F)c3)c3c(c2)C(=O)N[C@@H]3c2cc(F)ccc2Cl)cn1` [Compound I-980], the IC50 was less than 1000 nM.

As to `O=C1NCc2cc(-c3cc(NC(=O)c4cc(F)cc(C(F)(F)F)c4)c4c(c3)C(=O)NC4c3cc(F)ccc3Cl)ccc2O1` (stereo not drawn) [Compound I-981], the IC50 is less than 1000 nM.

Regarding `O=C1Cc2ccc(-c3cc(NC(=O)c4cc(F)cc(C(F)(F)F)c4)c4c(c3)C(=O)NC4c3cc(F)ccc3Cl)cc2N1` (stereo not drawn) [Compound I-982], the IC50 is less than 1000 nM.

With `O=C(Nc1cc(-c2cccn3nccc23)cc2c1C(c1cc(F)ccc1Cl)NC2=O)c1cc(F)cc(C(F)(F)F)c1` (stereo not drawn) [Compound I-983], the IC50 is less than 1000 nM.

For the compound `Cc1nc2ccc(-c3cc(NC(=O)c4cc(F)cc(C(F)(F)F)c4)c4c(c3)C(=O)NC4c3cc(F)ccc3Cl)cc2o1` (stereo not drawn) [Compound I-984], the IC50 is less than 1000 nM.

With `Cc1ncncc1-c1cc(NC(=O)c2cc(F)cc(C(F)(F)F)c2)c2c(c1)C(=O)NC2c1cc(F)ccc1Cl` (stereo not drawn) [Compound I-985], the IC50 was less than 1000 nM.

Take `O=C(Nc1cc(Nc2nc3ccccc3[nH]2)cc2c1C(c1cc(F)ccc1Cl)NC2=O)c1cc(F)cc(C(F)(F)F)c1` (stereo not drawn) [Compound I-993]: the IC50 is 1000 to 5000 nM.

Consider `O=C(Nc1cc(Nc2cn[nH]c2)cc2c1C(c1cc(F)ccc1Cl)NC2=O)c1cc(F)cc(C(F)(F)F)c1` (stereo not drawn) [Compound I-994], for which the IC50 is less than 1000 nM.

Consider `O=C(Nc1cc(Nc2ncc[nH]2)cc2c1C(c1cc(F)ccc1Cl)NC2=O)c1cc(F)cc(C(F)(F)F)c1` (stereo not drawn) [Compound I-999], for which the IC50 lay within 1000 to 5000 nM.

Consider `O=C(Nc1cc(-c2ccc3nccnc3c2)cc2c1C(c1cc(F)ccc1Cl)NC2=O)c1cc(F)cc(C(F)(F)F)c1` (stereo not drawn) [Compound I-1012], for which the IC50 was less than 1000 nM.

A further assay has as its target H1047R PIK3CA enzyme (Homo sapiens, UniProt P42336, H1047R). Briefly: ADP-Glo Biochemical PIK3CA Kinase Assay.
Conditions: not given
As for `O=C(Nc1cc(Nc2ncco2)cc2c1C(c1cc(F)ccc1Cl)NC2=O)c1cc(F)cc(C(F)(F)F)c1` (stereo not drawn) [Compound I-961], the IC50 was not above 100 nM.

`C[S+]([O-])Cc1cc(NC(=O)c2cc(F)cc(C(F)(F)F)c2)c2c(c1)C(=O)NC2c1cc(F)ccc1Cl` (stereo not drawn) [Compound I-962] yielded an IC50 not above 100 nM.

As for `Cc1coc(Nc2cc(NC(=O)c3cc(F)cc(C(F)(F)F)c3)c3c(c2)C(=O)NC3c2cc(F)ccc2Cl)n1` (stereo not drawn) [Compound I-964], the IC50 is not above 100 nM.

Consider `Cn1cc(Nc2cc(NC(=O)c3cc(F)cc(C(F)(F)F)c3)c3c(c2)C(=O)NC3c2cc(F)ccc2Cl)nn1` (stereo not drawn) [Compound I-965], for which the IC50 was not above 100 nM.

Consider `Cc1nc(Nc2cc(NC(=O)c3cc(F)cc(C(F)(F)F)c3)c3c(c2)C(=O)NC3c2cc(F)ccc2Cl)oc1C` (stereo not drawn) [Compound I-966], for which the IC50 was not above 100 nM.

Turning to `O=C(Nc1cc(-c2cncnc2)cc2c1C(c1cc(F)ccc1Cl)NC2=O)c1cc(F)cc(C(F)(F)F)c1` (stereo not drawn) [Compound I-967], the IC50 was not above 100 nM.

`CC(C)(O)Cn1cc(-c2cc(NC(=O)c3cc(F)cc(C(F)(F)F)c3)c3c(c2)C(=O)NC3c2cc(F)ccc2Cl)cn1` (stereo not drawn) [Compound I-968]: the IC50 is not above 100 nM.

Turning to `O=C(Nc1cc(-c2cnc3ncnn3c2)cc2c1C(c1cc(F)ccc1Cl)NC2=O)c1cc(F)cc(C(F)(F)F)c1` (stereo not drawn) [Compound I-969], the IC50 is not above 100 nM.

In turn, `O=C(Nc1cc(-c2cc3ncccc3[nH]2)cc2c1C(c1cc(F)ccc1Cl)NC2=O)c1cc(F)cc(C(F)(F)F)c1` (stereo not drawn) [Compound I-970] returned an IC50 not above 100 nM.

`O=C(Nc1cc(-c2cc3ccccc3[nH]2)cc2c1C(c1cc(F)ccc1Cl)NC2=O)c1cc(F)cc(C(F)(F)F)c1` (stereo not drawn) [Compound I-971] had an IC50 not above 100 nM.

`O=C(Nc1cc(-c2cc3cccnc3[nH]2)cc2c1C(c1cc(F)ccc1Cl)NC2=O)c1cc(F)cc(C(F)(F)F)c1` (stereo not drawn) [Compound I-972] displayed an IC50 not above 100 nM.

`Cn1ncnc1Nc1cc(NC(=O)c2cc(F)cc(C(F)(F)F)c2)c2c(c1)C(=O)NC2c1cc(F)ccc1Cl` (stereo not drawn) [Compound I-974]: the IC50 was not above 100 nM.

The compound `Cn1cnc(Nc2cc(NC(=O)c3cc(F)cc(C(F)(F)F)c3)c3c(c2)C(=O)NC3c2cc(F)ccc2Cl)n1` (stereo not drawn) [Compound I-976] had an IC50 not above 100 nM.

Take `O=C1NC(c2cc(F)ccc2Cl)c2c(Nc3nccc4c(C(F)(F)F)cc(F)cc34)cc(Br)cc21` (stereo not drawn) [Compound I-978]: the IC50 was not above 100 nM.

Turning to `N#Cc1ncc(-c2cc(NC(=O)c3cc(F)cc(C(F)(F)F)c3)c3c(c2)C(=O)N[C@@H]3c2cc(F)ccc2Cl)cn1` [Compound I-980], the IC50 is not above 100 nM.

As for `O=C1NCc2cc(-c3cc(NC(=O)c4cc(F)cc(C(F)(F)F)c4)c4c(c3)C(=O)NC4c3cc(F)ccc3Cl)ccc2O1` (stereo not drawn) [Compound I-981], the IC50 was not above 100 nM.

The compound `O=C1Cc2ccc(-c3cc(NC(=O)c4cc(F)cc(C(F)(F)F)c4)c4c(c3)C(=O)NC4c3cc(F)ccc3Cl)cc2N1` (stereo not drawn) [Compound I-982] gave an IC50 not above 100 nM.

Take `O=C(Nc1cc(-c2cccn3nccc23)cc2c1C(c1cc(F)ccc1Cl)NC2=O)c1cc(F)cc(C(F)(F)F)c1` (stereo not drawn) [Compound I-983]: the IC50 was not above 100 nM.

As for `Cc1nc2ccc(-c3cc(NC(=O)c4cc(F)cc(C(F)(F)F)c4)c4c(c3)C(=O)NC4c3cc(F)ccc3Cl)cc2o1` (stereo not drawn) [Compound I-984], the IC50 was not above 100 nM.

As for `Cc1ncncc1-c1cc(NC(=O)c2cc(F)cc(C(F)(F)F)c2)c2c(c1)C(=O)NC2c1cc(F)ccc1Cl` (stereo not drawn) [Compound I-985], the IC50 is not above 100 nM.

`O=C(Nc1cc(Nc2nc3ccccc3[nH]2)cc2c1C(c1cc(F)ccc1Cl)NC2=O)c1cc(F)cc(C(F)(F)F)c1` (stereo not drawn) [Compound I-993] yielded an IC50 not above 100 nM.

The compound `O=C(Nc1cc(Nc2cn[nH]c2)cc2c1C(c1cc(F)ccc1Cl)NC2=O)c1cc(F)cc(C(F)(F)F)c1` (stereo not drawn) [Compound I-994] registered an IC50 not above 100 nM.

Take `O=C(Nc1cc(Nc2ncc[nH]2)cc2c1C(c1cc(F)ccc1Cl)NC2=O)c1cc(F)cc(C(F)(F)F)c1` (stereo not drawn) [Compound I-999]: the IC50 was not above 100 nM.

`O=C(Nc1cc(-c2ccc3nccnc3c2)cc2c1C(c1cc(F)ccc1Cl)NC2=O)c1cc(F)cc(C(F)(F)F)c1` (stereo not drawn) [Compound I-1012] yielded an IC50 not above 100 nM.
